Measured values reported in publication PMC5870887 (Bioorganic & medicinal chemistry letters, 2018).

Biological target: recombinant α-synuclein fibrils (Homo sapiens, UniProt P37840)
Assay: Thioflavin T competitive binding fluorescence assay
Conditions: Thioflavin T assay Ki, mean ± SD, at least three experiments, NB = no binding was measurable (concentrations up to 10 μM)

Row | Ki [µM] | Structure (SMILES)
1 | 0.192 ± 0.001 | COc1ccc2nc(/C=C/c3ccccc3)ccc2c1 [Compound 2, (E)-6-Methoxy-2-styrylquinoline]
2 | 0.68 ± 0.139 | COc1ccc2ccc(/C=C/c3ccccc3)nc2c1 [Compound 3, (E)-7-methoxy-2-styrylquinoline]
3 | 0.015 ± 0.003 | COc1cc(-c2nc(-c3ccc4cc(OCCF)ccc4n3)no2)ccn1 [Compound 28, 3-(6-(2-Fluoroethoxy)quinolin-2-yl)-5-(2-methoxypyridin-4-yl)-1,2,4-oxadiazole]

Same assay, conditions: mean ± SD, at least three experiments, NB = no binding was measurable (concentrations up to 10 μM)

Row | Thioflavin T assay Ki | Structure (SMILES)
4 | no binding | COc1cccc2nc(/C=C/c3ccccc3)ccc12 [Compound 1, (E)-5-Methoxy-2-styrylquinoline]
5 | no binding | COc1cccc2ccc(/C=C/c3ccccc3)nc12 [Compound 4, (E)-8-Methoxy-2-styrylquinoline]
6 | no binding | COc1ccc2nc(/C=C/c3ccnc(F)c3)ccc2c1 [Compound 11, (E)-2-(2-(2-Fluoropyridin-4-yl)vinyl)-6-methoxyquinoline]
7 | no binding | COc1ccc2nc(/C=C/c3ccncc3Cl)ccc2c1 [Compound 15, (E)-2-(2-(3-Chloropyridin-4-yl)vinyl)-6-methoxyquinoline]
8 | moderate binding | COc1ccc2nc(/C=C/c3ccncc3Br)ccc2c1 [Compound 16, (E)-2-(2-(3-Bromopyridin-4-yl)vinyl)-6-methoxyquinoline]

Same assay, conditions: read-out: Thioflavin T assay Ki, mean ± SD, at least three experiments, NB = no binding was measurable (concentrations up to 10 μM)

Row | Ki [µM] | Structure (SMILES)
9 | > 10 | COc1cccc2nc(/C=C/c3ccccc3)ccc12 [Compound 1, (E)-5-Methoxy-2-styrylquinoline]
10 | > 10 | COc1cccc2ccc(/C=C/c3ccccc3)nc12 [Compound 4, (E)-8-Methoxy-2-styrylquinoline]
11 | > 10 | COc1cc2ccccc2nc1/C=C/c1ccncc1 [Compound 5, (E)-3-Methoxy-2-(2-(pyridin-4-yl)vinyl)quinolone]
12 | > 10 | COc1cc(/C=C/c2ccncc2)nc2ccccc12 [Compound 6, (E)-4-Methoxy-2-(2-(pyridin-4-yl)vinyl)quinolone]
13 | 0.056 ± 0.04 | COc1cccc2nc(/C=C/c3ccncc3)ccc12 [Compound 7, (E)-5-Methoxy-2-(2-(pyridin-4-yl)vinyl)quinolone]
14 | 0.052 ± 0.038 | COc1ccc2nc(/C=C/c3ccncc3)ccc2c1 [Compound 8, (E)-6-Methoxy-2-(2-(pyridin-4-yl)vinyl)quinolone]
15 | > 10 | COc1ccc2ccc(/C=C/c3ccncc3)nc2c1 [Compound 9, (E)-7-Methoxy-2-(2-(pyridin-4-yl)vinyl)quinolone]
16 | > 10 | COc1cccc2ccc(/C=C/c3ccncc3)nc12 [Compound 10, (E)-8-Methoxy-2-(2-(pyridin-4-yl)vinyl)quinolone]
17 | > 10 | COc1ccc2nc(/C=C/c3ccnc(F)c3)ccc2c1 [Compound 11, (E)-2-(2-(2-Fluoropyridin-4-yl)vinyl)-6-methoxyquinoline]
18 | 0.052 ± 0.021 | COc1ccc2nc(/C=C/c3ccnc(OC)c3)ccc2c1 [Compound 13, (E)-6-Methoxy-2-(2-(2-methoxypyridin-4-yl)vinyl)quinolone]
19 | 0.018 ± 0.001 | COc1cc(/C=C/c2ccc3cc(OCCF)ccc3n2)ccn1 [Compound 14, (E)-6-(2-Fluoroethoxy)-2-(2-(2-methoxypyridin-4-yl)vinyl)quinolone]
20 | > 10 | COc1ccc2nc(/C=C/c3ccncc3Cl)ccc2c1 [Compound 15, (E)-2-(2-(3-Chloropyridin-4-yl)vinyl)-6-methoxyquinoline]
21 | > 10 | COc1ccc2nc(-c3noc(-c4cccnc4)n3)ccc2c1 [Compound 26, 3-(6-Methoxyquinolin-2-yl)-5-(pyridin-3-yl)-1,2,4-oxadiazole]
22 | > 10 | COCOc1ccc2nc(-c3noc(-c4ccnc(OC)c4)n3)ccc2c1 [Compound 29, 3-(6-(Methoxymethoxy)quinolin-2-yl)-5-(2-methoxypyridin-4-yl)-1,2,4-oxadiazole]
23 | > 10 | COc1cc(-c2nc(-c3ccc4cc(OC(C)C)ccc4n3)no2)ccn1 [Compound 30, 3-(6-Isopropoxyquinolin-2-yl)-5-(2-methoxypyridin-4-yl)-1,2,4-oxadiazole]
24 | > 10 | COc1ccc2nc(-c3noc(-c4ccn5ccnc5c4)n3)ccc2c1 [Compound 31, 5-(Imidazo[1,2-a]pyridin-7-yl)-3-(6-methoxyquinolin-2-yl)-1,2,4-oxadiazole]
25 | > 10 | CC(C)Oc1ccc2nc(-c3noc(-c4ccn5ccnc5c4)n3)ccc2c1 [Compound 32, 5-(Imidazo[1,2-a]pyridin-7-yl)-3-(6-isopropoxyquinolin-2-yl)-1,2,4-oxadiazole]
26 | > 10 | FCCOc1ccc2nc(-c3noc(-c4ccn5ccnc5c4)n3)ccc2c1 [Compound 33, 3-(6-(2-Fluoroethoxy)quinolin-2-yl)-5-(imidazo[1,2-a]pyridin-7-yl)-1,2,4-oxadiazole]
27 | > 10 | COCOc1ccc2nc(-c3noc(-c4ccn5ccnc5c4)n3)ccc2c1 [Compound 34, 5-(Imidazo[1,2-a]pyridin-7-yl)-3-(6-(methoxymethoxy)-quinolin-2-yl)-1,2,4-oxadiazole]
